Measurements from ChEMBL document CHEMBL1136728, “Antitumor activity of novel deoxoartemisinin monomers, dimers, and trimer” (J Med Chem, 2003).
In brackets after ≈: the same amount, converted by molar mass.

Columns and labels:
Format in all cases: functional, cell-based
BeWo = test: In vitro cytotoxicity of compound against Bewo, human choriocarcinoma was defined by microculture tetrazolium assay
MCF7 = test: In vitro cytotoxicity of compound against MCF7, human breast cancer was defined by microculture tetrazolium assay
EL4 = test: In vitro cytotoxicity of compound against EL4, mouse thymoma was defined by microculture tetrazolium assay
P388 = test: In vitro cytotoxicity of compound against P388, mouse […] leukemia was defined by microculture tetrazolium assay
HT-29 = test: In vitro cytotoxicity of compound against HT29, human colorectal adenocarcinoma was defined by microculture tetrazolium assay

Structure (SMILES) | IC50 (BeWo) [µg/mL] | IC50 (MCF7) [µg/mL] | IC50 (EL4) [µg/mL] | IC50 (P388) [µg/mL] | IC50 (HT-29) [µg/mL]
C[C@H]1[C@@H](CCS(=O)(=O)CCCS(=O)(=O)CC[C@H]2O[C@@H]3O[C@]4(C)CC[C@H]5[C@H](C)CC[C@@H]([C@H]2C)[C@]35OO4)O[C@@H]2O[C@]3(C)CC[C@H]4[C@H](C)CC[C@@H]1[C@]24OO3 | 8.5 (≈ 11.2 µM) | 5.6 (≈ 7.36 µM) | 10 (≈ 13.1 µM) | 8.4 (≈ 11 µM) | 0.38 (≈ 0.499 µM)
C[C@H]1[C@@H](CCCCN)O[C@@H]2O[C@]3(C)CC[C@H]4[C@H](C)CC[C@@H]1[C@]24OO3 | > 20 | 0.02 (≈ 0.0589 µM) | 5.63 (≈ 16.6 µM) | 6.18 (≈ 18.2 µM) | 2.2 (≈ 6.48 µM)
C[C@H]1[C@@H](CCNC(=O)CC[C@H](NC(=O)CC[C@H]2O[C@@H]3O[C@]4(C)CC[C@H]5[C@H](C)CC[C@@H]([C@H]2C)[C@]35OO4)C(=O)NCC[C@H]2O[C@@H]3O[C@]4(C)CC[C@H]5[C@H](C)CC[C@@H]([C@H]2C)[C@]35OO4)O[C@@H]2O[C@]3(C)CC[C@H]4[C@H](C)CC[C@@H]1[C@]24OO3 | 18.3 (≈ 17.3 µM) | 0.017 (≈ 0.0161 µM) | 1.07 (≈ 1.01 µM) | 0.12 (≈ 0.114 µM) | 0.09 (≈ 0.0852 µM)
C[C@H]1[C@@H](CCS(=O)(=O)CC[C@H]2O[C@@H]3O[C@]4(C)CC[C@H]5[C@H](C)CC[C@@H]([C@H]2C)[C@]35OO4)O[C@@H]2O[C@]3(C)CC[C@H]4[C@H](C)CC[C@@H]1[C@]24OO3 | 1.04 (≈ 1.59 µM) | 0.025 (≈ 0.0382 µM) | 0.54 (≈ 0.825 µM) | 5.6 (≈ 8.55 µM) | 0.38 (≈ 0.58 µM)
CO[C@@]12[C@H](COC(N)=O)C3=C(C(=O)C(C)=C(N)C3=O)N1C[C@@H]1N[C@@H]12 [MITOMYCIN] | 0.85 (≈ 2.54 µM) | 0.93 (≈ 2.78 µM) | 3.94 (≈ 11.8 µM) | 1.5 (≈ 4.49 µM) | 0.02 (≈ 0.0598 µM)
C[C@H]1[C@@H](CCC(=O)N[C@@H](CCC(=O)O)C(=O)O)O[C@@H]2O[C@]3(C)CC[C@H]4[C@H](C)CC[C@@H]1[C@]24OO3 | > 20 | 13.4 (≈ 28.5 µM) | > 20 | > 20 | 8.6 (≈ 18.3 µM)
C[C@H]1[C@@H](CCSCC[C@H]2O[C@@H]3O[C@]4(C)CC[C@H]5[C@H](C)CC[C@@H]([C@H]2C)[C@]35OO4)O[C@@H]2O[C@]3(C)CC[C@H]4[C@H](C)CC[C@@H]1[C@]24OO3 | 14.2 (≈ 22.8 µM) | 0.017 (≈ 0.0273 µM) | 0.23 (≈ 0.369 µM) | 0.4 (≈ 0.642 µM) | 0.24 (≈ 0.385 µM)
C[C@H]1[C@@H](CCCCN=[N+]=[N-])O[C@@H]2O[C@]3(C)CC[C@H]4[C@H](C)CC[C@@H]1[C@]24OO3 | > 20 | 11.6 (≈ 31.7 µM) | 1.61 (≈ 4.41 µM) | 10.3 (≈ 28.2 µM) | 2.76 (≈ 7.55 µM)
C[C@H]1[C@@H](CCNC(=O)CC[C@H]2O[C@@H]3O[C@]4(C)CC[C@H]5[C@H](C)CC[C@@H]([C@H]2C)[C@]35OO4)O[C@@H]2O[C@]3(C)CC[C@H]4[C@H](C)CC[C@@H]1[C@]24OO3 | 7.5 (≈ 11.8 µM) | 0.005 (≈ 0.00789 µM) | 6.29 (≈ 9.92 µM) | 10.4 (≈ 16.4 µM) | 0.69 (≈ 1.09 µM)
COc1cccc2c1C(=O)c1c(O)c3c(c(O)c1C2=O)C[C@@](O)(C(=O)CO)C[C@@H]3O[C@H]1C[C@H](N)[C@H](O)[C@H](C)O1 [DOXORUBICIN] | 6.24 (≈ 11.5 µM) |  | 0.67 (≈ 1.23 µM) | 0.39 (≈ 0.718 µM) | 0.1 (≈ 0.184 µM)
C[C@H]1[C@@H](CCNC(=O)CC[C@H](N)C(=O)NCC[C@H]2O[C@@H]3O[C@]4(C)CC[C@H]5[C@H](C)CC[C@@H]([C@H]2C)[C@]35OO4)O[C@@H]2O[C@]3(C)CC[C@H]4[C@H](C)CC[C@@H]1[C@]24OO3 | > 20 | 15.3 (≈ 20.8 µM) | 16.5 (≈ 22.5 µM) | 15.6 (≈ 21.3 µM) | 6.5 (≈ 8.86 µM)
CC(=O)O[C@H]1C(=O)[C@@]2(C)[C@H]([C@H](OC(=O)c3ccccc3)[C@]3(O)C[C@H](OC(=O)[C@H](O)[C@@H](NC(=O)c4ccccc4)c4ccccc4)C(C)=C1C3(C)C)[C@]1(OC(C)=O)CO[C@@H]1C[C@@H]2O [PACLITAXEL] | 7.39 (≈ 8.65 µM) |  | 1.34 (≈ 1.57 µM) | 2.27 (≈ 2.66 µM) | 0.01 (≈ 0.0117 µM)
C[C@H]1[C@@H](CCCCNC(=O)CC[C@H]2O[C@@H]3O[C@]4(C)CC[C@H]5[C@H](C)CC[C@@H]([C@H]2C)[C@]35OO4)O[C@@H]2O[C@]3(C)CC[C@H]4[C@H](C)CC[C@@H]1[C@]24OO3 | > 20 | > 20 | > 20 | > 20 | 20.2 (≈ 30.5 µM)
